# Values of other authors in patent US20220323409A1, “MODIFIED RELEASE FORMULATIONS AND USES THEREOF” (SUNOVION PHARMACEUTICALS INC., priority 2019, published 2022).
# Legend:
# [1] = 400-800 mg/day dosage range, product label
# [2] = Taubel et al. 2017
smiles,measurement,setting,value
"CCN1CCCC1CNC(=O)c1cc(S(=O)(=O)CC)c(N)cc1OC (racemic) [Racemic (50:50), 4-amino-N-[(1-ethylpyrrolidin-2-yl)methyl]-5-ethylsulfonyl-2-methoxy-benzamide]","frequency of movement related adverse events (tremor, rigidity, hypokinesia, hypersalivation, akathisia, dyskinesia)",[1],very common
same,QT interval prolongation versus plasma concentration,[2],substantially linear increase of prolongation with plasma concentration
